What was measured:
Boftis cinerea = assay: Action against Boftis cinerea/grape (Botrytis on grapes); type: in vivo; details: grape seedlings cv. Gutedel, spray 0.002% active ingredient, inoculated two days after application, assessed after 4 days incubation
Procedure: Action Against Boftis cinerea/grape (Botrytis on Grapes)
5 week old grape seedlings cv. […] Two days after application grape plants are inoculated by spraying a spore suspension (1×10^6 conidia/ml) on the test plants. After an incubation period of 4 days at 21° C. and 95% r. h. in a greenhouse the disease incidence is assessed.

Venturia Inaequalis = assay: Action against Venturia inaequalis/apple (scab on apple); type: in vivo; details: apple seedlings cv. McIntosh, spray 0.02% active ingredient, inoculated one day after application, assessed after 4+4+4 days incubation
Procedure: Action Against Venturia Inaequalis/apple (Scab on Apple)
4 week old apple seedlings cv. […] One day after application apple plants are inoculated by spraying a spore suspension (4×10^5 conidia/ml) on the test plants. After an incubation period of 4 days at 21° C. and 95% r. h. the plants are placed for 4 days at 21° C. and 60% r. h. in a greenhouse. After another 4 day incubation period at 21° C. and 95% r. h. the disease incidence is assessed.

Podosphaera leucotricha = assay: Action against Podosphaera leucotricha/apple (powdery mildew on apple); type: in vivo; details: apple seedlings cv. McIntosh, spray 0.002% active ingredient, inoculated one day after application, assessed after 12 days incubation
Procedure: Action Against Podosphaera leucotricha/apple (Powdery Mildew on Apple)
5 week old apple seedlings cv. […] One day after application apple plants are inoculated by shaking plants infected with apple powdery mildew above the test plants. After an incubation period of 12 days at 22° C. and 60% r. h. under a light regime of 14/10 h (light/dark) the disease incidence is assessed.

Botryts cinerea = assay: Action against Botryts cinerea/tomato (Botrytis on tomatoes); type: in vivo; details: tomato plants cv. Roter Gnom, spray 0.002% active ingredient, inoculated two days after application, assessed after 4 days incubation
Procedure: Action Against Botryts cinerea/tomato (Botrytis on Tomatoes)
4 week old tomato plants cv. […] Two days after application tomato plants are inoculated by spraying a spore suspension (1×10^5 conidia/ml) on the test plants. After an incubation period of 4 days at 20° C. and 95% r. h. in a growth chamber the disease incidence is assessed.

Puenophora teres = assay: Action against Puenophora teres/barley (net blotch on barley); type: in vivo; details: barley plants cv. Express, spray 0.002% active ingredient, inoculated two days after application, assessed 4 days after inoculation
Procedure: Action Against Puenophora teres/barley (Net Blotch on Barley)
1 week old barley plants cv. […] Two days after application barley plants are inoculated by spraying a spore suspension (3×10^4 conidia/ml) on the test plants. After an incubation period of 2 days at 20° C. and 95% r. h. plants are kept for 2 days at 20° C. and 60% r.h. in a greenhouse. The disease incidence is assessed 4 days after inoculation.

Botryis cinerea = assay: Action against Botryis cinerea/apple (Botrytis on apple fruits); type: in vivo, B. cinerea; details: apple fruit cv. Golden Delicious, 30 μl droplets 0.002% active ingredient in drilled holes, inoculated two hours after application, assessed after 7 days
Procedure: Action Against Botryis cinerea/apple (Botrytis on Apple Fruits)
In an apple fruit cv. […] Two hours after application 50 μl of a spore suspension of B. cinerea (4×10^5 conidia/ml) are pipetted on the application sites. After an incubation period of 7 days at 22° C. in a growth chamber the disease incidence is assessed.

Septoria nodorum = assay: Action against Septoria nodorum/wheat (Septoria leaf spot on wheat); type: in vivo; details: wheat plants cv. Arina, spray 0.02% active ingredient, inoculated one day after application, assessed 11 days after inoculation
Procedure: Action Against Septoria nodorum/wheat (Septoria Leaf Spot on Wheat)
1 week old wheat plants cv. […] One day after application wheat plants are inoculated by spraying a spore suspension (5×10^5 conidia/ml) on the test plants. After an incubation period of 1 day at 20° C. and 95% r. h. plants are kept for 10 days at 20° C. and 60% r.h. in a greenhouse. The disease incidence is assessed 11 days after inoculation.

Etysiphe graminis = assay: Action against Etysiphe graminis/barley (powdery mildew on barley); type: in vivo; details: barley plants cv. Express, spray 0.02% active ingredient, inoculated one day after application, assessed after 6 days incubation
Procedure: Action Against Etysiphe graminis/barley (Powdery Mildew on Barley)
1 week old barley plants cv. […] One day after application barley plants are inoculated by shaking powdery mildew infected plants above the test plants. After an incubation period of 6 days at 20° C./18° C. (day/night) and 60% r. h. in a greenhouse the disease incidence is assessed.

Measured: efficacy (disease incidence)

CC1CC(C)(C)c2cccc(NC(=O)c3cn(C)cc3C(F)(F)C(F)(F)F)c21 (racemic) [Compound 10.5]
strong efficacy: all assays above

Cc1cn(C)cc1C(=O)Nc1ccccc1C1=CCCCC1 [Compound 1.5]
strong efficacy: all assays above

Cc1cn(C)cc1C(=O)Nc1ccccc1C1CCCCC1 [Compound 1.9]
strong efficacy: all assays above

Cc1cn(C)cc1C(=O)Nc1ccccc1-c1ccc(Cl)cc1 [Compound 1.23]
strong efficacy: all assays above

Cc1cn(C)cc1C(=O)Nc1ccccc1-c1ccncc1F [Compound 1.46]
strong efficacy: all assays above

Cn1cc(C(=O)Nc2ccccc2-c2ccc(Cl)cc2)c(C(F)F)c1 [Compound 1.144]
strong efficacy: all assays above

Cn1cc(C(=O)Nc2ccccc2C2=CCCCC2)c(C(F)(F)C(F)(F)F)c1 [Compound 1.183]
strong efficacy: all assays above

Cn1cc(C(=O)Nc2ccccc2C2CCCCC2)c(C(F)(F)C(F)(F)F)c1 [Compound 1.187]
strong efficacy: all assays above

Cn1cc(C(=O)Nc2ccccc2-c2ccc(Cl)cc2)c(C(F)(F)C(F)(F)F)c1 [Compound 1.190]
strong efficacy: all assays above

Cn1cc(C(=O)Nc2ccccc2-c2ccc(F)cc2)c(C(F)(F)C(F)(F)F)c1 [Compound 1.192]
strong efficacy: all assays above

Cn1cc(C(=O)Nc2ccccc2C2CCCCC2)c(C2CC2)c1 [Compound 1.206]
strong efficacy: all assays above

Cn1cc(C(=O)Nc2ccccc2-c2ccncc2F)c(C2CC2)c1 [Compound 1.244]
strong efficacy: all assays above

CCc1cn(C)cc1C(=O)Nc1ccccc1-c1ccc(Cl)cc1 [Compound 1.260]
strong efficacy: all assays above

CCc1cn(C)cc1C(=O)Nc1ccccc1-c1ccc(F)cc1 [Compound 1.261]
strong efficacy: all assays above

CCc1cn(CC)cc1C(=O)Nc1ccccc1-c1ccc(Cl)cc1 [Compound 1.265]
strong efficacy: all assays above

Reference: patent US6806286B2, “Pyrrolecarboxamides and pyrrolethioamides as fungicides” (Syngenta Crop Protection, Inc., priority 2000, dated 2004)
